{
  "source": "patent US7071231B2",
  "about": "“Naphthalene ureas as glucose uptake enhancers” (Telik, Inc., priority 1999, dated 2006)",
  "key": {"db/db mouse": {"system": "db/db mouse", "test": "Blood glucose level determination in db/db mouse", "format": "in vivo", "conditions": "compound intraperitoneally, with or without 0.01U insulin s.c.; 0-4 hr (FIGS. 8 and 9)", "protocol": "Blood Glucose Level Determination in db/db Mouse.\nAn accepted model for Type 2 diabetes which has been used to establish the potential anti-diabetic activity of compounds is the db/db mouse. Seven to 9 week old male db/db mice (Jackson Laboratories, Bar Harbor, Me.), were used to the study of the effects of compounds on blood glucose levels. Animals were kept in a 12 h/12 h light/dark cycle, and experiments were initiated immediately after the dark period (7:00 a.m.). Food was removed at this time and returned after the final blood glucose measurement was taken.\nInsulin (0.5U/ml, Humulin R, Catalog HI-201, Lilly, Indianapolis, Ind.) was prepared by diluting 100U/mL stock insulin 1:200 with PBS (phosphate buffered saline, Gibco, BRL). Compounds were prepared in a vehicle of either PBS or 20% DMSO in PBS.\nFive to 10 animals (average weight 40–50 g) were used in each treatment condition. The animals were injected subcutaneously with either 0.01U insulin in PBS or PBS alone, followed by 0.1 mL of compound or its vehicle delivered intraperitoneally. Blood samples were taken 0 min, 15 min, 30 min, 1 hr, 2 hr and 4 hr after the administration of the drug or vehicle by tail bleeding. Glucose measurements were made with a Glucometer and Glucose strips (Bayer). […]"}, "EGFR": {"target": "T1, EGFR (Homo sapiens, UniProt P00533)", "T1 construct": "endogenous in cells; host or cells: A431", "T1 sequence (P00533 25-1210)": "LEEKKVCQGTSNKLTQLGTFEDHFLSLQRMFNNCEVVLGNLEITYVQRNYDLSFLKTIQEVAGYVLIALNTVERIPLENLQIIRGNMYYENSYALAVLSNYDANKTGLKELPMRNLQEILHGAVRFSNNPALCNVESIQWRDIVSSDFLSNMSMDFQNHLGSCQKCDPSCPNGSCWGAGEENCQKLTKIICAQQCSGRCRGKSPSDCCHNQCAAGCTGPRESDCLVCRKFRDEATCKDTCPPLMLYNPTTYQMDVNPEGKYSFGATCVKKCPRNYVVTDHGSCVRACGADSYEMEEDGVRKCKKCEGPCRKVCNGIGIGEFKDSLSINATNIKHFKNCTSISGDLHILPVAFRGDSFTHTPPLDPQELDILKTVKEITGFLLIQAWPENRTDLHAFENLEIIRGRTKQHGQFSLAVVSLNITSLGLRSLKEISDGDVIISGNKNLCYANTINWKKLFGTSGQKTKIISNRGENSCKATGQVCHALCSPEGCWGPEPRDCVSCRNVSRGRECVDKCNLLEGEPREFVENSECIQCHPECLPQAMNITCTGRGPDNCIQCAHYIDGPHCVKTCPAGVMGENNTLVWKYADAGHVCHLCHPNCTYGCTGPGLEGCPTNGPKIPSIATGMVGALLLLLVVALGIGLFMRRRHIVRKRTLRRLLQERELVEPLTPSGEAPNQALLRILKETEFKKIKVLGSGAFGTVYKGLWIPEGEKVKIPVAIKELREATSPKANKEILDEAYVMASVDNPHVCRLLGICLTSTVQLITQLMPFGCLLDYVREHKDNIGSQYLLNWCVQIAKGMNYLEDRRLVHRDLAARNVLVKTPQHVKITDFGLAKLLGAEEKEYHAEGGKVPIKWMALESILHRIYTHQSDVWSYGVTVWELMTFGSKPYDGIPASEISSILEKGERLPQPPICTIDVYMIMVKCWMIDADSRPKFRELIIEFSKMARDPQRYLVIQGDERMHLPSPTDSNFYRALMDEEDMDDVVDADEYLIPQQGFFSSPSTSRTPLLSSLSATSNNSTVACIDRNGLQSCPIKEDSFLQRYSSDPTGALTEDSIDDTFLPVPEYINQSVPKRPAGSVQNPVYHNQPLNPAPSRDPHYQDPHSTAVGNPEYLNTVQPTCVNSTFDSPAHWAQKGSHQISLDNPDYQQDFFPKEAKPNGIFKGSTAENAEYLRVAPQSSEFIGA", "test": "Selectivity: EGFR phosphorylation in A431 cells", "format": "cell-based", "conditions": "in the presence or absence of EGF (2.5 ng/ml)", "protocol": "Selectivity vs. EGFR, PDGFR and IGFR\nIn order to determine the selectivity of these compounds for the insulin receptor, their effects on other receptors that share a similar mechanism of activation with the insulin receptor were examined. Human epidermoid carcinoma (A431) cells were plated at a density of 2×10^5 cells per well in 6-well dishes in DMEM with 10% FBS and L-Glutamine and allowed to grow to 75% confluence. Prior to the experiment, the cells were serum-starved overnight with DMEM with 0.1% BSA. The following morning, the cells were washed with PBS and the medium was replaced with 150 mM NaCl, 1.7 mM KCl, 0.9 mM CaCl2, K2HPO4 (pH 7.4), to which was added either the experimental compound or its vehicle (DMSO). Epidermal Growth Factor (EGF) or its vehicle (0.01% BSA) was diluted in the assay buffer (containing test compound or vehicle respectively) to a final concentration of 2.5 ng/ml. After incubating for 15 min, the cells were washed with cold PBS twice and lysed in 50 mM Tris.HCl pH 7.4, 150 mM NaCl, 0.25% sodium deoxycholate, 1% NP40, 1 mM EGTA, 1 mM PMSF, 1 mM Na3VO4, 1 mM NaF, 1 ug/ml each of Aprotinin, Leupeptin and Pepstatin. The cell lysates were clarified by centrifugation at 12000 rpm, and the supernatants were estimated for protein concentration. […]"}, "[1]": {"target": "insulin-like growth factor type 1 (IGF-1) receptor (Homo sapiens, UniProt P08069)", "sequence (P08069 741-1367 limits assumed)": "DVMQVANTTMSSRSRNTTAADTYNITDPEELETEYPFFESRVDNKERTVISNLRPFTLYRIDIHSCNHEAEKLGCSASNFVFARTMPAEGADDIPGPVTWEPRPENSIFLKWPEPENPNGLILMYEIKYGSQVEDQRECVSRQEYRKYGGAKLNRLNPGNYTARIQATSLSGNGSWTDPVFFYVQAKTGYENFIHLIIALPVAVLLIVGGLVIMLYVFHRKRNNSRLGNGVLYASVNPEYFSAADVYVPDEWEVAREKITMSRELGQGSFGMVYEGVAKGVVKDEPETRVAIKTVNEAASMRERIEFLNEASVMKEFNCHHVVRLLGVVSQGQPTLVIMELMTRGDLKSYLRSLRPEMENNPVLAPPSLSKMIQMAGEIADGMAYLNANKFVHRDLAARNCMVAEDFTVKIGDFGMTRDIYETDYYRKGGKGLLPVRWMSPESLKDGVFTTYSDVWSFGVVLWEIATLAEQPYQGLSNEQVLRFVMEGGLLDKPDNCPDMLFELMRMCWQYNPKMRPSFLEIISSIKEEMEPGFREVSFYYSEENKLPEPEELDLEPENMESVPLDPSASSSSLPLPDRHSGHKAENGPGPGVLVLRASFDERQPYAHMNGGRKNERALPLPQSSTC", "sequence (P08069 31-736 partner limits assumed)": "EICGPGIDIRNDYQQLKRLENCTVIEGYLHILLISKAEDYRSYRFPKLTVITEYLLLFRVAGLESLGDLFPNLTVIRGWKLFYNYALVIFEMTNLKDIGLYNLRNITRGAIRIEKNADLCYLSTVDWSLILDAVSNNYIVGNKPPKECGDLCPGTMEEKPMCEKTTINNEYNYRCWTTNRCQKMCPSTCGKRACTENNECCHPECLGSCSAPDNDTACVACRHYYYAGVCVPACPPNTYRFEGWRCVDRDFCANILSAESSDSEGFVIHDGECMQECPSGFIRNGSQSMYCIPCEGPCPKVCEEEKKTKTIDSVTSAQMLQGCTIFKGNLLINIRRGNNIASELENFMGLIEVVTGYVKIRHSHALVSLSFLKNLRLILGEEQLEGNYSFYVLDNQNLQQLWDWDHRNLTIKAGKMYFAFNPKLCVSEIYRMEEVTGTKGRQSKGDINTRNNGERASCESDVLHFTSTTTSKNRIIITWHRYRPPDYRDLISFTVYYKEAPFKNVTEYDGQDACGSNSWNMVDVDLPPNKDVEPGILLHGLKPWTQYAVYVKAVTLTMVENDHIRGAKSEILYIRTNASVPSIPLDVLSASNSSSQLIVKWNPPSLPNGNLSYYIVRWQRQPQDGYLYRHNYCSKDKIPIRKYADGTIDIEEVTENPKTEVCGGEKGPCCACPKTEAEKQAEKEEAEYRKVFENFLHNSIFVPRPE", "test": "Selectivity: IGF-1 receptor phosphorylation", "format": "cell-based", "conditions": "in the absence or presence of IGF-1"}, "3T3 L1 fibroblasts": {"system": "3T3 L1 fibroblasts", "test": "Glucose transport activity assay (14C-2-deoxy-D-glucose uptake)", "format": "cell-based", "procedure,_shortened": "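Differentiated 3T3 L1 adipocytes (IBMX/dexamethasone/insulin induction), serum-starved overnight, preincubated 30 min at 37 °C with compound ± insulin in pH 7.4 salt buffer, then 30 min with 5 μCi/ml 14C-2-deoxy-D-glucose. Lysate radioactivity counted; EC = concentration raising uptake above 150% of vehicle control.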"}, "CYP2C19": {"target": "CYP2C19 (Homo sapiens, UniProt P33261)", "sequence (P33261 whole entry)": "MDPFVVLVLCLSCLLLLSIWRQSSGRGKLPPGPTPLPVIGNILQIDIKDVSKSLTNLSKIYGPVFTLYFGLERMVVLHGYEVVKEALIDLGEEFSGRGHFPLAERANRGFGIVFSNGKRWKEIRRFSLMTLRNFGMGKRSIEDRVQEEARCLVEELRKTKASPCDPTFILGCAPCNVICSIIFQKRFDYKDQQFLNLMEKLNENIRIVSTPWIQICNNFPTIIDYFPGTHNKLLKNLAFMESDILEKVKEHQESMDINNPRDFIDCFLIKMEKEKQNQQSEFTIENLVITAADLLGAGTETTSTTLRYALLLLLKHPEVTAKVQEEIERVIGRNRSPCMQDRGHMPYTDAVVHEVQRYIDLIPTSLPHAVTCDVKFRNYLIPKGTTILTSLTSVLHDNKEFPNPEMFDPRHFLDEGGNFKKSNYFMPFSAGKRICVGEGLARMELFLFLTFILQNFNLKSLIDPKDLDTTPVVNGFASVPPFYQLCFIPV", "test": "P450 interactions: CYP2C19 inhibition", "format": "in vitro ADME", "conditions": "human cytochromes P450", "source_text": "A major pathway for elimination of drugs from the body, which may limit their effectiveness, is the cytochrome P450 system of the liver."}},
  "data": [
    {"smiles": "O=C(Nc1ccc2c(O)cc(S(=O)(=O)Nc3cccc(S(=O)(=O)O)c3)cc2c1)Nc1ccc2c(O)cc(S(=O)(=O)Nc3cccc(S(=O)(=O)O)c3)cc2c1", "note": "[Compound 15, 3-{[(4-hydroxy-7-{[N-(5-hydroxy-7-{[(3-sulfophenyl)amino]sulfonyl}(2-naphthyl))carbamoyl]amino}-2-naphthyl)sulfonyl]amino}benzenesulfonic acid]", "values": [
      {"measurement": "blood glucose levels in db/db mice", "setting": "db/db mouse", "result": "acts in an insulin-independent manner to lower blood glucose levels"},
      {"measurement": "phosphorylation of EGFR", "setting": "EGFR", "result": "did not increase the phosphorylation of EGFR"},
      {"measurement": "phosphorylation of the IGF-1 receptor", "setting": "[1]", "result": "not to increase the phosphorylation"},
      {"measurement": "EC (150% of vehicle control)", "setting": "3T3 L1 fibroblasts; Mus musculus, EC (effective concentration) for increase in glucose transport, 14C-2-deoxy-D-glucose, 3T3 L1 cells, read-out: Concentration (μM) to reach >150% activity of vehicle control", "result": 3.2, "unit": "µM"},
      {"measurement": "glucose uptake of cells", "setting": "3T3 L1 fibroblasts; in the presence or absence of insulin (FIG. 3)", "result": "increase in glucose uptake of cells"},
      {"measurement": "inhibition of catalytic activity of CYP2C19", "setting": "CYP2C19", "result": "did not inhibit"}
    ]}
  ]
}
